Results from patent publication EP1743643A1, “New formulations of substituted pyrazoline compounds” (LABORATORIOS DEL DR. ESTEVE, S.A., priority 2005, dated 2007).

Columns and labels:
male mice B6 Lep ob/ob = test: In-vivo testing for regulation of triglycerides in blood, obese mice on high fat diet; conditions: for triglicerides blood levels (result in words): obese mice fed with high fat diet
From the text: The study was done using six weeks old male mice B6 Lep ob/ob, obtained from Charles River (France). Mice were divided in 3 groups : I (control), II (vehicle), III (example 0).
The animals of the group I received the standard diet (D-12450B, Research Diets, NJ, USA).
The animals of the groups II and III were fed with a High Fat Diet (D-12492, Research Diets, NJ, USA), in both cases for 7 weeks (References 1 and 2).
The animals of the groups III were fed with a High Fat Diet (D-12492, Research Diets, NJ, USA), in both cases for 7 weeks (References 1 and 2).
At the end of the feeding period of 7 weeks, it was started the treatment period (14 days): Group II mice received the vehicle (10 ml/kg/day, po, of the aqueous solution of acacia gum, 5% WN). Group III was administered with 30 mg/kg/day, po, of the inventive compound 5-(4-chlorophenyl)-1-(2,4-dichlorophenyl)-4,5-dihydro-pyrazole-3-carboxylic acid according to Example 0. Group I didn't received any treatment. The three groups of mice had the same diet than in the previous period.
At the end of the 14 days period of treatment, the blood levels of triglicerides of the animals were determined.
The analysis of the whole blood samples was done using test strips "Lipid panel" and the photometric Analyzer Cardio-Check Test System, from PA Instruments Polymer Technology Systems Indianapolis, IN-46268, USA (Distributed in Spain by Novalab Iberica S.A.L, Madrid, Spain).

CB2-Receptor = target: T1, CB2-Receptor (Homo sapiens, UniProt P34972); test: In-vitro determination of affinity to CB2 receptor (radioligand [3H]-CP55940); type: binding
T1 construct: purchased Receptor Biology, Inc
T1 sequence (P34972 whole entry): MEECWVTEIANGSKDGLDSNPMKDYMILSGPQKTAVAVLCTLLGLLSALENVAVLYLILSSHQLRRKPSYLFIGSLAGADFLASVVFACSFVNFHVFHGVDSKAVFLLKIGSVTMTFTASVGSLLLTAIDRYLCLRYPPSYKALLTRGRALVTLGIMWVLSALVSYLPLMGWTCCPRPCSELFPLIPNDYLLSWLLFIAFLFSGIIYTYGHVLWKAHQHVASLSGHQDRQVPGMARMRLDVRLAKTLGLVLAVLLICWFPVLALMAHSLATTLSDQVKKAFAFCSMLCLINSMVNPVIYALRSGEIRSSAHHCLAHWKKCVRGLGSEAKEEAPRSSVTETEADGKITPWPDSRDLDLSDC
Experimental: (§1) The in-vitro determination of the affinity of the inventive substituted pyrazoline compounds to CB1/CB2-Rezeptors is carried out as described in the publication of Ruth A. Ross, Heather C. Brockie et al., "Agonist-inverse agonist characterization at CB1 and CB2 cannabinoid receptors of L-759633, L759656 and AM630", British Journal of Pharmacology, 126, 665-672, (1999), whereby the transfected human CB1 and CB2 receptors of Receptor Biology, Inc. are used. The radioligand used for both receptors is [^3H]-CP55940. The respective parts of the description is hereby incorporated by reference and forms part of the present disclosure.
(§2) The affinity of the inventive substituted pyrazoline compounds to CB1/CB2 receptors was determined as described above.

CB1-Receptor = target: T2, CB1-Receptor (Homo sapiens, UniProt P21554); test: In-vitro determination of affinity to CB1 receptor (radioligand [3H]-CP55940); type: binding
T2 construct: purchased Receptor Biology, Inc
T2 sequence (P21554 whole entry): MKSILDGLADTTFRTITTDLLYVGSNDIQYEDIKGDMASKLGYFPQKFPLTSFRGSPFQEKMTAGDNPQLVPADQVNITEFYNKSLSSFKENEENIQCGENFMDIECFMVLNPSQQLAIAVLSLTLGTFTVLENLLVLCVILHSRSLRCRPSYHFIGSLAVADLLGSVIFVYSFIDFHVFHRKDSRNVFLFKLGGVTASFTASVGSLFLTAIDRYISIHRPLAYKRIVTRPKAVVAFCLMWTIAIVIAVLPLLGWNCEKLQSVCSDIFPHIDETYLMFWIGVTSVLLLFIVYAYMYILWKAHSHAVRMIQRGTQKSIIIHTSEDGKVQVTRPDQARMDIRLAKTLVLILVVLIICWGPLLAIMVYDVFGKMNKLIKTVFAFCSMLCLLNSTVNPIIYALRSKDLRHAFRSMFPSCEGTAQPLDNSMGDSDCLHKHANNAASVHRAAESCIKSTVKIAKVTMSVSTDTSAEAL
Experimental: as §1, §2

Row | SMILES | Triglicerides, whole blood levels (mg/dl) (male mice B6 Lep ob/ob; High Fat diet, 30 mg/kg/day po, 14 days of treatment, B6 Lep ob/ob mice) | triglicerides blood levels (result in words) (male mice B6 Lep ob/ob) | triglicerides blood levels (result in words) (male mice B6 Lep ob/ob; listed as Example 8) | Relative levels (male mice B6 Lep ob/ob; triglicerides relative to Group I (standard diet, 100%), High Fat diet, 30 mg/kg/day po, 14 days) [%] | Ki (CB2-Receptor) [µM] | Ki (CB1-Receptor) [µM]
1 | O=C(O)C1=NN(c2ccc(Cl)cc2Cl)C(c2ccc(Cl)cc2)C1 (stereo not shown) [Example 0, 5-(4-chlorophenyl)-1-(2,4-dichlorophenyl)-4,5-dihydro-pyrazole-3-carboxylic acid] | 67.5 (N.S.) mg/dl | inhibitor of high blood levels of triglicerides | improved the triglicerides blood levels | 110.6 |  | 
2 | O=C(C1=NN(c2ccc(Cl)cc2Cl)C(c2ccc(Cl)cc2)C1)N1CCCCC1 (stereo not shown) [Example 5, [5-(4-Chloro-phenyl)-1-(2,4-dichloro-phenyl)-4,5-dihydro-1H-pyrazol-3-yl]-piperidin-1-yl-methanone] |  |  |  |  | ~1 | 
3 | O=C(NN1CCCCC1)C1=NN(c2ccc(Cl)cc2Cl)C(c2ccc(Cl)cc2)C1 (stereo not shown) [Example 1, N-piperidinyl-5-(4-chlorophenyl)-1-(2,4-dichlorophenyl)-4,5-dihydro-1H-pyrazole-3-carboxamide] |  |  |  |  | > 1 | < 0.025
